Experimental data taken from the CheMixHub viscosity set.

Test: xn = mol fraction of the nth substance listed

CCCCBr + CCC(C)O
viscosity [mPa·s], 101.33 kPa
Settings | x2 = 0.11 | x2 = 0.208 | x2 = 0.3145 | x2 = 0.3968 | x2 = 0.4998 | x2 = 0.6057 | x2 = 0.7046 | x2 = 0.786 | x2 = 0.8988
298.15 K | 0.613 | 0.642 | 0.689 | 0.742 | 0.833 | 0.975 | 1.176 | 1.428 | 2.018
308.15 K | 0.538 | 0.552 | 0.581 | 0.614 | 0.675 | 0.77 | 0.905 | 1.075 | 1.461
318.15 K | 0.483 | 0.492 | 0.512 | 0.537 | 0.579 | 0.653 | 0.741 | 0.855 | 1.111

CCCCNCCCC + CCC(C)O
viscosity [mPa·s]
Settings | 298.15 K | 303.15 K | 308.15 K | 318.15 K
101 kPa, x1 = 0.008423 | – | 2.446 | – | –
101 kPa, x1 = 0.01776 | – | 2.42 | – | –
101 kPa, x1 = 0.02719 | – | 2.398 | – | –
101 kPa, x1 = 0.03174 | – | 2.389 | – | –
101 kPa, x1 = 0.04204 | – | 2.369 | – | –
101 kPa, x1 = 0.0502 | – | 2.353 | – | –
101 kPa, x1 = 0.06011 | – | 2.332 | – | –
101 kPa, x1 = 0.06621 | – | 2.32 | – | –
101 kPa, x1 = 0.07608 | – | 2.299 | – | –
101.33 kPa, x1 = 0.0594 | 2.662 | – | 1.888 | 1.409
101.33 kPa, x1 = 0.0839 | 2.525 | – | 1.79 | 1.328
101.33 kPa, x1 = 0.1282 | 2.305 | – | 1.657 | 1.24
101.33 kPa, x1 = 0.1858 | 2.06 | – | 1.516 | 1.147
101.33 kPa, x1 = 0.2618 | 1.787 | – | 1.344 | 1.054
101.33 kPa, x1 = 0.3612 | 1.511 | – | 1.181 | 0.948
101.33 kPa, x1 = 0.4306 | 1.373 | – | 1.089 | 0.886
101.33 kPa, x1 = 0.5042 | 1.246 | – | 1.012 | 0.827
101.33 kPa, x1 = 0.5658 | 1.16 | – | 0.952 | 0.784
101.33 kPa, x1 = 0.6215 | 1.095 | – | 0.898 | 0.753
101.33 kPa, x1 = 0.6856 | 1.031 | – | 0.855 | 0.712
101.33 kPa, x1 = 0.7458 | 0.986 | – | 0.818 | 0.696
101.33 kPa, x1 = 0.794 | 0.959 | – | 0.803 | 0.684
101.33 kPa, x1 = 0.8584 | 0.905 | – | 0.76 | 0.681
101.33 kPa, x1 = 0.9138 | 0.859 | – | 0.733 | 0.661

COCCO + CCC(C)O
viscosity [mPa·s]
Settings | 298.15 K | 303.15 K | 313.15 K
100 kPa, x1 = 0.1007 | 2.54 | – | 1.61
100 kPa, x1 = 0.202 | 2.2 | – | 1.46
100 kPa, x1 = 0.3022 | 1.98 | – | 1.36
100 kPa, x1 = 0.4018 | 1.83 | – | 1.29
100 kPa, x1 = 0.5022 | 1.73 | – | 1.24
100 kPa, x1 = 0.6017 | 1.66 | – | 1.21
100 kPa, x1 = 0.701 | 1.61 | – | 1.19
100 kPa, x1 = 0.8006 | 1.58 | – | 1.18
100 kPa, x1 = 0.9006 | 1.56 | – | 1.18
101.3 kPa, x1 = 0.1228 | – | 2.584 | –
101.3 kPa, x1 = 0.209 | – | 2.261 | –
101.3 kPa, x1 = 0.3377 | – | 1.898 | –
101.3 kPa, x1 = 0.428 | – | 1.714 | –
101.3 kPa, x1 = 0.5977 | – | 1.488 | –
101.3 kPa, x1 = 0.6442 | – | 1.45 | –
101.3 kPa, x1 = 0.7067 | – | 1.411 | –
101.3 kPa, x1 = 0.8447 | – | 1.368 | –
101.3 kPa, x1 = 0.9188 | – | 1.308 | –

CCCC(C)O (stereo not drawn) + CCCCCC
viscosity [mPa·s], 101.33 kPa
Settings | x1 = 0.1 | x1 = 0.2 | x1 = 0.3 | x1 = 0.4 | x1 = 0.5 | x1 = 0.6 | x1 = 0.7 | x1 = 0.8 | x1 = 0.9
303 K | 0.28 | 0.31 | 0.382 | 0.537 | 0.682 | 0.878 | 1.228 | 1.588 | 1.965
313 K | 0.249 | 0.277 | 0.36 | 0.44 | 0.544 | 0.802 | 0.967 | 1.21 | 1.484
323 K | 0.228 | 0.254 | 0.31 | 0.385 | 0.472 | 0.634 | 0.805 | 0.981 | 1.138

CCCC(C)O (stereo not drawn) + CCCCCCC
101 kPa
Settings | viscosity [mPa·s]
293.8 K, x1 = 0.5 | 0.771
295.1 K, x1 = 0.051 | 0.477

CC(CC(C)(C)C)CC(C)(C)CC(C)(C)C (stereo not drawn) + CCCCCCCCCCCC
Settings | viscosity [mPa·s]
323.15 K, 100 kPa, x1 = 0.279 | 1.09

CC(CC(C)(C)C)CC(C)(C)CC(C)(C)C (stereo not drawn) + CCCCCCCCCCCCC
viscosity [mPa·s], 100 kPa
Settings | x2 = 0.125 | x2 = 0.25 | x2 = 0.375 | x2 = 0.5 | x2 = 0.625 | x2 = 0.75 | x2 = 0.875
293.15 K | 3.28 | 2.98 | 2.69 | 2.49 | 2.29 | 2.14 | 1.98
303.15 K | 2.65 | 2.39 | 2.18 | 2.07 | 1.89 | 1.76 | 1.64
313.15 K | 2.15 | 1.96 | 1.79 | 1.71 | 1.57 | 1.47 | 1.39
323.15 K | 1.79 | 1.63 | 1.51 | 1.43 | 1.33 | 1.25 | 1.18

CC(CC(C)(C)C)CC(C)(C)CC(C)(C)C (stereo not drawn) + CCCCCCCCCCCCCCCC
298.15 K, 101.33 kPa
Settings | viscosity [mPa·s]
x2 = 0.0974 | 3.252
x2 = 0.2011 | 3.181
x2 = 0.3015 | 3.128
x2 = 0.3995 | 3.09
x2 = 0.4995 | 3.064
x2 = 0.6002 | 3.05
x2 = 0.7004 | 3.045
x2 = 0.8 | 3.049

CCCCNCCCC + CCCCCCCCCCO
viscosity [mPa·s], 101.33 kPa
Settings | x1 = 0.0981 | x1 = 0.1964 | x1 = 0.286 | x1 = 0.3857 | x1 = 0.4851 | x1 = 0.5846 | x1 = 0.6877 | x1 = 0.7856 | x1 = 0.8866
303.15 K | 7.771 | 6.615 | 5.545 | 4.423 | 3.439 | 2.607 | 1.944 | 1.445 | 1.073
313.15 K | 5.959 | 4.985 | 4.15 | 3.305 | 2.611 | 2.021 | 1.545 | 1.199 | 0.9135

CCOC(=O)C(=O)OCC + CCCCCCCCCCO
303.15 K, 101.33 kPa
Settings | viscosity [mPa·s]
x1 = 0.1042 | 6.782
x1 = 0.1986 | 5.372
x1 = 0.2934 | 4.324
x1 = 0.401 | 3.516
x1 = 0.5111 | 2.851
x1 = 0.5985 | 2.488
x1 = 0.7108 | 2.078
x1 = 0.8081 | 1.837
x1 = 0.8863 | 1.691

CCCCNCCCC + CCCCCCCCO
viscosity [mPa·s], 101.33 kPa
Settings | x1 = 0.0912 | x1 = 0.1863 | x1 = 0.2846 | x1 = 0.3857 | x1 = 0.4878 | x1 = 0.5882 | x1 = 0.6862 | x1 = 0.7892 | x1 = 0.8929
303.15 K | 5.37 | 4.588 | 3.829 | 3.105 | 2.481 | 1.979 | 1.581 | 1.251 | 0.9852
313.15 K | 3.865 | 3.336 | 2.812 | 2.336 | 1.921 | 1.569 | 1.277 | 1.026 | 0.827

CCOC(=O)C(=O)OCC + CCCCCCCCO
303.15 K, 101.33 kPa
Settings | viscosity [mPa·s]
x1 = 0.0949 | 4.702
x1 = 0.2003 | 3.667
x1 = 0.2883 | 3.152
x1 = 0.4 | 2.636
x1 = 0.5026 | 2.296
x1 = 0.6064 | 2.027
x1 = 0.6984 | 1.86
x1 = 0.7809 | 1.74
x1 = 0.8763 | 1.638
